Results taken from patent publication US20120045532A1, “Anticancer Methods Employing Extracts of Gleditsia sinensis Lam” (priority 2008, published 2012).

Legend:
Hs578T = assay: Annexin V/PI binding (cell death/apoptosis), flow cytometry; assay type: cell-based; conditions: for effect of addition of cholesterol on induced death: Hs578T cells, 70 μg/ml BN107, 0.2 mg/ml BZL101 or 500 nM taxol with 500 μM cholesterol, 18 hours
Procedure: (§1) ERα plays a role in BN107-induced apoptosis. In Table 1-1 below are the results of experiments in which cells were treated with BN107 and harvested after 24 hours for analysis of Annexin V/PI binding. Three independent experiments were conducted for each data point.
(§2) BN107 induced apoptosis selectively in ER− breast cancer cells and introducing expression of ERα protected these cells against BN107 Prior studies have shown that ethanolic extract of G. sinensis is cytotoxic to a number tumor cell lines by inducing cytotoxicity. A wider panel of solid-tumor cell lines, derived from various origins, is analyzed herein. Sub-confluent cultures were treated with 70 μg/ml of BN107 for 18 hours and cell death were analyzed by annexinV/PI binding followed by flow cytometry. […] It is evident that BN107 induced cell death in tumor lines derived from various origins to different extent. […] These experiments sought to determine if there was correlative relationship between genotypic characteristics of the cells versus sensitivity. As shown in Table 2-1, it appeared that cells lacking ER expression were highly sensitive to BN107; while cells containing functional ER were relatively insensitive to BN107 at this dose. The death induced by BN107 in ER− lines was apoptotic in nature that was primarily mediated by the mitochondrial pathway, as evident from Annexin V binding, dissipation of mitochondrial potential, cytosolic release of cytochrome C, activation of caspases, and DNA fragmentation.
(§3) All the cell lines used were purchased from ATCC. Cells were treated with 70 μg/ml of BN107 (calculated based on freeze-dry weight). The dose is determined based on the EC50 of each batch in killing 50% of Hs578T or MDA-MB-231 cells 18 hours after treatment.
(§4) Cell survival was measured using FACS analysis of AnnexinV-alexa 488/PI bound cells following the manufacturer's instruction (Invitrogen). Mitochondrial transmembrane potential (MTP) was determined using JC-1 dye (Invitrogen) in live cells and analyzed using flow cytomery. Caspase 3 and 9 activities were measured using specific caspase peptide inhibitors (Calbiochem) conjugated to FITC followed by flow cytometry analysis. Cytosolic cytochrome C release were determined by separating the cytosol from mitochondria (Biovision) and cytochrome C released in cytosol was shown using immunoblotting.

MDA-MB-231 = assay: as above; assay type: cell-based; conditions: Homo sapiens, MDA-MB-231, read-out: EC50 for MDA-MB-231
Procedure: as §1, §2, §3, §4

[1] = tested on: phospho-mTOR, total mTOR, RAPTOR and RICTOR in LR fractions of Hs578T; assay: Western blot of lipid raft fractions: mTOR complex components; assay type: cell-based, human; conditions: Hs578T cells; 70 μg/ml BN107 or 110 μM oleanolic acid, 4 hours
Procedure: (§5) As Akt/mTOR, the main survival signaling pathway, has been implicated to take place on LRs, it was hypothesized that BN107 and similarly OA disrupted the signaling of these complexes on LRs. The fractions collected from sucrose-density—centrifugation of BN107 or OA treated Hs578T or MCF7 lysates were dialyzed and concentrated. Same amounts of protein from LR (fractions 3-5), non-LR plasma membrane (f6), and cytosolic (f8) fractions were analyzed by Western blotting. The levels of RAPTOR, Akt, 4E-BP, p70S6 kinase were first observed in these collected fractions; and it was confirmed that they were all enriched in the LR fractions (data not shown). The levels of phospho-mTOR, total mTOR; as well as the mTORC1 and mTORC2 complex partner RAPTOR and RICTOR, respectively, were then measured in BN107 or OA treated Hs578T cells. […]
(§6) A modified procedure for density gradient centrifugation using Nycodenz from Sigma-Aldrich (St. Louis, Mo.) was used to fractionate Triton X-100-soluble and Triton X-100-insoluble membrane and cytoskeletal subdomains and complexes. […] Total of 10 fractions and control input lysate were analyzed for the distribution of proteins by Western blot. […] The fractions were dialyzed against PBS to remove the gradient sugars and concentrated using Amicon Ultra 4 centrifugal filter device (Millipore) before protein quantitation (BCA reagent, Thermo Fisher). […]

mTORC1 = mTORC1 activity by phosphorylation of 4E-BP and p70S6 kinase (Western); assay type: cell-based, human; conditions: lipid raft region of Hs578T cells; 70 μg/ml BN107 or 110 μM oleanolic acid, 4 hr
Procedure: as §5, §6

mTORC2 / Akt = assay: Ser473-phosphorylated Akt in LR fractions as read-out for mTORC2 activity (Western); assay type: cell-based, human; conditions: Hs578T cells; 70 μg/ml BN107 or 110 μM oleanolic acid, 4 hr
Procedure: (§7) In addition, as the same pool of mTOR/FRAP1 polypeptide is shared between the mTORC1 and mTORC2 complex and the mTORC2 complex partner RICTOR was decreased in the lipid rafts of BN107 or OA-treated Hs578T cells, it was hypothesized that mTORC2 activity would be inhibited as well. Given the recent discovery that mTORC2 is the main kinase phosphorylating Akt at Ser473, and Akt signaling has been implicated to take place on LRs, the level of Ser473 phosphorylated Akt was analyzed in LR fractions as a read-out for mTORC2 activity. […] Conversely, addition of exogenous cholesterol restored these signaling events disrupted by BN107 or OA (FIG. 8C). […] The levels of transferrin receptor (TR) marking the non-LR plasma membrane region and GAPDH marking the cytosolic fractions were not affected in both cell lines by either BN107 or OA treatment.
as §6

[2] = tested on: mTORC1/mTORC2/Akt signaling in MCF7 cells; assay: Western blot of lipid raft fractions, resistant cells; assay type: cell-based, human
Procedure: as §7, §6

[3] = tested on: mTOR/FRAP1, phospho-mTOR, RAPTOR, RICTOR, Akt in Hs578T cells; assay: Western analysis of total cellular lysate; assay type: cell-based, human; conditions: ER− Hs578T cells (data not shown)
Excerpt: To ascertain that these signaling changes occurred at LRs indeed translated into the whole-cell level. […] Consistent with the data shown within the lipid raft fractions, levels of total mTOR/FRAP1, phospho-mTOR, RAPTOR, and RICTOR were all decreased within one hour of BN107 treatment, resulting in minimal mTORC1 and mTORC2 activities to phosphorylate 4E-BP and p70S6 kinase, and Ser473-Akt, respectively. The decrease in total protein levels of mTOR/FRAP1, RAPTOR and RICTOR occurred post-transcriptionally as the levels of their corresponding mRNAs were not modulated by BN107 or OA treatment in the sensitive ER− Hs578T cells (data not shown). […] These effects were presumably due to their cholesterol binding/stripping effect on LRs, as addition of exogenous cholesterol seemed to reverse these events (FIG. 8C).
Cell extracts, obtained by scraping cells in PBS in the presence of protein phosphatase and protease inhibitors and lysing with ice-cold RIPA buffer, were loaded on the SDS-PAGE at 25-30 μg per lane. Same amounts of proteins […] were precipitated from lipid raft fractions and loaded onto 3-7% TA gel or 4-12% Bis-Tris gels. Separated proteins were transferred onto nitrocellulose membrane (iBlot, Invitrogen) and used for probing with specific antibodies following manufacturer's instruction. Blots were reused several times after mild stripping (Restore, ThermoFisher) when necessary. […]

[4] = animals; cited from earlier work

Structure (SMILES) | EC50 (Hs578T; Homo sapiens, Hs-578T, read-out: EC50 for Hs578T) [µM] | effect of addition of cholesterol on induced death (Hs578T) | EC50 (MDA-MB-231) [µM] | levels of phospho-mTOR, total mTOR, RAPTOR and RICTOR in LR fractions [1] | mTORC1 activity (phosphorylation of 4E-BP and p70S6 kinase) (mTORC1) | level of Ser473-phosphorylated Akt in LR fractions (mTORC2 read-out) (mTORC2 / Akt) | total level of Akt on LRs (mTORC2 / Akt) | changes in mTORC1/mTORC2/Akt signaling on LRs [2] | mRNA levels of mTOR/FRAP1, RAPTOR and RICTOR [3] | toxicity at anti-tumor doses [4]
CC1(C)CC[C@]2(C(=O)O)CC[C@]3(C)C(=CC[C@@H]4[C@@]5(C)CC[C@H](O)C(C)(C)[C@@H]5CC[C@]43C)[C@@H]2C1 [OA, oleanolic acid] | 110 | protected cells specifically and completely | 125 | significantly decreased | greatly inhibited | decreased | no effect | None of these changes were observed | not modulated | minimal toxicity
CC(=O)O[C@H]1C(=O)[C@@]2(C)[C@H]([C@H](OC(=O)c3ccccc3)[C@]3(O)C[C@H](OC(=O)[C@H](O)[C@@H](NC(=O)c4ccccc4)c4ccccc4)C(C)=C1C3(C)C)[C@]1(OC(C)=O)CO[C@@H]1C[C@@H]2O [taxol, paclitaxel, reference compound] | – | no effect | – | – | – | – | – | – | – | –
